In article PMC4638363, “Linear Interaction Energy Based Prediction of Cytochrome P450 1A2 Binding Affinities with Reliability Estimation” (PLoS ONE, 2015):
Like-named read-outs stand apart in the source and are kept apart here.

Columns and labels:
CYP 1A2 [1] = details: Table A, Source 1; ref Bayer HealthCare databases for CYP inhibition (eTOX); cited from earlier work
recombinant CYP 1A2 [2] = tested on: recombinant CYP 1A2
human CYP 1A2 [3] = biological target: T1, human CYP 1A2 (Homo sapiens, UniProt P05177); test: in-house CYP 1A2 inhibition assay with 7-methoxyresorufin as substrate (resorufin fluorescence); details: for ΔΔG bind: difference in ΔG bind between literature and in-house determined values; for ΔG bind (inhouse): from in-house IC50 via Cheng-Prusoff and RTln(Ki)
T1 sequence (P05177 1-516): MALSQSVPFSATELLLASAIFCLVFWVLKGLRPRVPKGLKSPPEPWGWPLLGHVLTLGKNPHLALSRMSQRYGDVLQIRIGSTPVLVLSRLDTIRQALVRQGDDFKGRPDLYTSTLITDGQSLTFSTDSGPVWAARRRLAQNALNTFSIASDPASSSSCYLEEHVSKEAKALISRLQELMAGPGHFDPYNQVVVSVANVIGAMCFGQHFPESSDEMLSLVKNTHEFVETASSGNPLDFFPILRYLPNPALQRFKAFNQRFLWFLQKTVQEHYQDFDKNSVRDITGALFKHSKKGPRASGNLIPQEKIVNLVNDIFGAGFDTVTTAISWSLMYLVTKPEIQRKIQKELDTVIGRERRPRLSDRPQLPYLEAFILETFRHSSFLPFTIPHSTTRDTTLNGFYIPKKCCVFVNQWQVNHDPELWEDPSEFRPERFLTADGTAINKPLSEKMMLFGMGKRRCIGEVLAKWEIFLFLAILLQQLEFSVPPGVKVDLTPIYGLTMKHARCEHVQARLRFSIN

human CYP 1A2 [4] = biological target: T1, human CYP 1A2
recombinant CYP 1A2 [5] = details: cited from earlier work
CYP 1A2 [6] = details: literature; cited from earlier work
recombinant CYP 1A2 [7] = details: from literature IC50, Source 3
[8] = read-out: IC 50 (lit), Source 3, recombinant CYP 1A2, 7-ethoxyresorufin O-dealkylation
[9] = Table A, Source 3, ref Korhonen et al., J. Med. Chem. 2005

SMILES: N[C@@H]1C[C@H]1c1ccccc1 (racemic) [Compound 15, Tranylcypromine]
- IC50 (CYP 1A2 [1]): 10.4 µM

SMILES: Oc1cccc2ccccc12 [Compound 9, 1-naphthol]
- ΔG bind (lit) (recombinant CYP 1A2 [2]; human): -7.96 ± 0.14 kcal/mol
- ΔGbind^Obs (recombinant CYP 1A2 [2]; human): -7.96 kcal/mol
- IC50 (human CYP 1A2 [3]): 2 ± 0.7 µM
- ΔΔG bind (human CYP 1A2 [3]): 0.287 kcal/mol
- ΔG bind (inhouse) (human CYP 1A2 [3]): -8.25 ± 0.22 kcal/mol
- Residual (ΔGbind^Obs–ΔG bind ^Calc), error in prediction (human CYP 1A2 [4]): -2.77 kcal/mol
- IC50 (recombinant CYP 1A2 [5]; [8]): 3.2 ± 0.8 µM

SMILES: COc1ccc(C=O)cc1 [Compound 11, p-methoxybenzaldehyde]
- ΔG bind (lit) (recombinant CYP 1A2 [2]): -5.31 ± 0.19 kcal/mol
- ΔGbind^Obs (recombinant CYP 1A2 [2]): -5.31 kcal/mol
- ΔΔG bind (human CYP 1A2 [3]): -0.239 kcal/mol
- ΔG bind (inhouse) (human CYP 1A2 [3]): -5.07 ± 0.048 kcal/mol
- IC50 (human CYP 1A2 [3]; read-out: IC 50 (inhouse)): 410 ± 32 µM
- Residual (ΔGbind^Obs–ΔG bind ^Calc), error in prediction (human CYP 1A2 [4]): -0.43 kcal/mol
- IC50 (recombinant CYP 1A2 [5]; [8]): 270 ± 85 µM

SMILES: Fc1ccc([C@@H]2CCNC[C@H]2COc2ccc3c(c2)OCO3)cc1 [Compound 18, Paroxetine]
- IC50 (CYP 1A2 [1]): 23.5 µM

SMILES: COC(=O)[C@H](c1ccccc1Cl)N1CCc2sccc2C1 [Compound 19, Clopidogrel]
- IC50 (CYP 1A2 [1]): 24.2 µM
- Reported inhibition mechanism (CYP 1A2 [6]): Substrate^69

SMILES: C#C[C@]1(O)CC[C@H]2[C@@H]3CCC4=Cc5oncc5C[C@]4(C)[C@H]3CC[C@@]21C [Compound 21, Danazol]
- IC50 (CYP 1A2 [1]): 45.3 µM

SMILES: Clc1ccccc1C(c1ccccc1)(c1ccccc1)n1ccnc1 [Compound 22, Clotrimazole]
- IC50 (CYP 1A2 [1]): 5.83 µM

SMILES: c1ccc2ccccc2c1 [Compound 27, Naphthalene]
- ΔGbind^Obs (recombinant CYP 1A2 [7]; training set): -4.73 kcal/mol
- Residual (ΔGbind^Obs—ΔGbind^Calc) (human CYP 1A2 [4]): -0.55 kcal/mol
- IC50 (recombinant CYP 1A2 [5]; [9]): 700 µM

SMILES: Cc1cccc2ccccc12 [Compound 28, 1-Methylnaphthalene]
- ΔGbind^Obs (recombinant CYP 1A2 [2]; human): -5.86 kcal/mol
- Residual (ΔGbind^Obs—ΔGbind^Calc) (human CYP 1A2 [4]; training set): -0.502 kcal/mol
- IC50 (recombinant CYP 1A2 [5]; [9]): 110 µM

SMILES: Clc1cccc2ccccc12 [Compound 29, 1-Chloronaphthalene]
- ΔGbind^Obs (recombinant CYP 1A2 [2]; human): -6.31 kcal/mol
- Residual (ΔGbind^Obs–ΔG bind ^Calc), error in prediction (human CYP 1A2 [4]): -0.932 kcal/mol
- IC50 (recombinant CYP 1A2 [5]; [9]): 50 µM

SMILES: Cc1ccc2ccccc2c1 [Compound 30, 2-Methylnaphthalene]
- ΔGbind^Obs (recombinant CYP 1A2 [2]; human): -5.78 kcal/mol
- Residual (ΔGbind^Obs—ΔGbind^Calc) (human CYP 1A2 [4]): -0.789 kcal/mol
- IC50 (recombinant CYP 1A2 [5]): 120 µM

SMILES: CCc1ccc2ccccc2c1 [Compound 31, 2-Ethylnaphthalene]
- ΔGbind^Obs (recombinant CYP 1A2 [2]; human): -6.91 kcal/mol
- Residual (ΔGbind^Obs–ΔG bind ^Calc), error in prediction (human CYP 1A2 [4]; test set): -0.789 kcal/mol
- IC50 (recombinant CYP 1A2 [5]; [9]): 19 µM

SMILES: Fc1ccc2ccccc2c1 [Compound 32, 2-Fluoronaphthalene]
- ΔGbind^Obs (recombinant CYP 1A2 [7]; training set): -6.33 kcal/mol
- Residual (ΔGbind^Obs—ΔGbind^Calc) (human CYP 1A2 [4]; training set): -1.34 kcal/mol
- IC50 (recombinant CYP 1A2 [5]; [9]): 49 µM

SMILES: Cc1ccc(C)c2ccccc12 [Compound 36, 1,4-Dimethylnaphthalene]
- ΔGbind^Obs (recombinant CYP 1A2 [2]; human): -7.89 kcal/mol
- Residual (ΔGbind^Obs—ΔGbind^Calc) (human CYP 1A2 [4]; training set): -1.77 kcal/mol
- IC50 (recombinant CYP 1A2 [5]; [9]): 3.6 µM

SMILES: Cc1cccc2c(C)cccc12 [Compound 39, 1,5-Dimethylnaphthalene]
- ΔGbind^Obs (recombinant CYP 1A2 [2]; human): -6.43 kcal/mol
- Residual (ΔGbind^Obs–ΔG bind ^Calc), error in prediction (human CYP 1A2 [4]): -0.478 kcal/mol
- IC50 (recombinant CYP 1A2 [5]): 42 µM

SMILES: Cc1ccc2c(C)cccc2c1 [Compound 40, 1,6-Dimethylnaphthalene]
- ΔGbind^Obs (recombinant CYP 1A2 [2]; human): -6.74 kcal/mol
- Residual (ΔGbind^Obs–ΔG bind ^Calc), error in prediction (human CYP 1A2 [4]; test set): -0.454 kcal/mol
- IC50 (recombinant CYP 1A2 [5]; [9]): 25 µM

SMILES: Cc1ccc2cccc(C)c2c1 [Compound 41, 1,7-Dimethylnaphthalene]
- ΔGbind^Obs (recombinant CYP 1A2 [2]; human): -7.46 kcal/mol
- Residual (ΔGbind^Obs–ΔG bind ^Calc), error in prediction (human CYP 1A2 [4]; test set): -1.46 kcal/mol
- IC50 (recombinant CYP 1A2 [5]; [9]): 7.5 µM

SMILES: Cc1ccc2cc(C)ccc2c1 [Compound 42, 2,6-Dimethylnaphthalene]
- ΔGbind^Obs (recombinant CYP 1A2 [2]; human): -6.29 kcal/mol
- Residual (ΔGbind^Obs—ΔGbind^Calc) (human CYP 1A2 [4]): -0.454 kcal/mol
- IC50 (recombinant CYP 1A2 [5]): 52 µM

SMILES: Cc1ccc2ccc(C)cc2c1 [Compound 43, 2,7-Dimethylnaphthalene]
- ΔGbind^Obs (recombinant CYP 1A2 [2]; human): -6.17 kcal/mol
- Residual (ΔGbind^Obs–ΔG bind ^Calc), error in prediction (human CYP 1A2 [4]; test set): 0 kcal/mol
- IC50 (recombinant CYP 1A2 [5]; [9]): 65 µM

SMILES: Cc1ccc2ccccc2n1 [Compound 44, Quinaldine]
- IC50 (recombinant CYP 1A2 [5]; [9]): 40 µM

SMILES: Cc1cnc2ccccc2c1 [Compound 45, 3-Methylquinoline]
- IC50 (recombinant CYP 1A2 [5]; [9]): 13 µM

SMILES: Cc1cc(C)c2ccccc2n1 [Compound 46, 2-4-Dimethylquinoline]
- IC50 (recombinant CYP 1A2 [5]): 2.4 µM

SMILES: Cc1cc2ccccc2cn1 [Compound 49, 3-Methylisoquinoline]
- IC50 (recombinant CYP 1A2 [5]; [9]): 21 µM

SMILES: CC1CCC(=O)O1 (centres unmarked) [Compound 51, γ-Valerolactone]
- ΔGbind^Obs (recombinant CYP 1A2 [2]): -2.92 kcal/mol
- Residual (ΔGbind^Obs—ΔGbind^Calc) (human CYP 1A2 [4]): 0.86 kcal/mol
- IC50 (recombinant CYP 1A2 [5]; [9]): 15000 µM

SMILES: CCC1CCC(=O)O1 (centres unmarked) [Compound 52, γ-Caprolactone]
- ΔGbind^Obs (recombinant CYP 1A2 [2]; human): -3.15 kcal/mol
- Residual (ΔGbind^Obs—ΔGbind^Calc) (human CYP 1A2 [4]): 0.956 kcal/mol
- IC50 (recombinant CYP 1A2 [5]): 9900 µM

SMILES: O=C1Cc2ccccc2O1 [Compound 60, 2-Coumarone]
- ΔGbind^Obs (recombinant CYP 1A2 [2]): -5.33 kcal/mol
- Residual (ΔGbind^Obs—ΔGbind^Calc) (human CYP 1A2 [4]; training set): -0.263 kcal/mol
- IC50 (recombinant CYP 1A2 [5]; [9]): 260 µM

SMILES: c1ccc2c(c1)CCO2 [Compound 62, 2,3-Dihydrobenzofuran]
- ΔGbind^Obs (recombinant CYP 1A2 [7]; training set): -4.42 kcal/mol
- Residual (ΔGbind^Obs—ΔGbind^Calc) (human CYP 1A2 [4]; training set): -0.096 kcal/mol
- IC50 (recombinant CYP 1A2 [5]; [9]): 1200 µM

SMILES: c1ccc2c(c1)CCC2 [Compound 63, Indan]
- ΔGbind^Obs (recombinant CYP 1A2 [2]; human): -4.88 kcal/mol
- IC50 (recombinant CYP 1A2 [5]): 550 µM

SMILES: O=c1[nH]c2ccccc2o1 [Compound 64, 2-Benzoxazolinone]
- ΔGbind^Obs (recombinant CYP 1A2 [2]; human): -5.11 kcal/mol
- Residual (ΔGbind^Obs—ΔGbind^Calc) (human CYP 1A2 [4]; training set): 0.19 kcal/mol
- IC50 (recombinant CYP 1A2 [5]; [9]): 370 µM

SMILES: c1ccc(-c2ccccc2)cc1 [Compound 65, Biphenyl]
- ΔGbind^Obs (recombinant CYP 1A2 [2]; human): -5.62 kcal/mol
- Residual (ΔGbind^Obs—ΔGbind^Calc) (human CYP 1A2 [4]): -0.12 kcal/mol
- IC50 (recombinant CYP 1A2 [5]): 160 µM

SMILES: Clc1ccccc1-c1ccccc1 [Compound 66, 2-Chlorobiphenyl]
- ΔGbind^Obs (recombinant CYP 1A2 [2]; human): -5.4 kcal/mol
- Residual (ΔGbind^Obs–ΔG bind ^Calc), error in prediction (human CYP 1A2 [4]; test set): 0.669 kcal/mol
- IC50 (recombinant CYP 1A2 [5]; [9]): 230 µM

SMILES: Clc1ccc(-c2ccccc2)cc1 [Compound 67, 4-Chlorobiphenyl]
- ΔGbind^Obs (recombinant CYP 1A2 [2]; human): -6.33 kcal/mol
- Residual (ΔGbind^Obs—ΔGbind^Calc) (human CYP 1A2 [4]): 0.024 kcal/mol
- IC50 (recombinant CYP 1A2 [5]; [9]): 49 µM

SMILES: CCCCC1CCCCC1 [Compound 68, Butylcyclohexane]
- ΔGbind^Obs (recombinant CYP 1A2 [7]; training set): -6.26 kcal/mol
- Residual (ΔGbind^Obs—ΔGbind^Calc) (human CYP 1A2 [4]; training set): 0.526 kcal/mol
- IC50 (recombinant CYP 1A2 [5]; [9]): 55 µM

SMILES: CCCCc1ccccc1 [Compound 69, Butylbenzene]
- ΔGbind^Obs (recombinant CYP 1A2 [2]; human): -3.75 kcal/mol
- Residual (ΔGbind^Obs–ΔG bind ^Calc), error in prediction (human CYP 1A2 [4]; test set): 1.43 kcal/mol
- IC50 (recombinant CYP 1A2 [5]; [9]): 3700 µM

SMILES: O=C1CCC(c2ccccc2)O1 (centres unmarked) [Compound 70, γ-Phenyl-γ-butyrolactone]
- ΔGbind^Obs (recombinant CYP 1A2 [2]): -4.04 kcal/mol
- Residual (ΔGbind^Obs—ΔGbind^Calc) (human CYP 1A2 [4]; training set): 1.36 kcal/mol
- IC50 (recombinant CYP 1A2 [5]; [9]): 2300 µM

SMILES: COC1=CC(=O)OC1 [Compound 71, 4-Methoxyfuran-2-(5H)-one]
- ΔGbind^Obs (recombinant CYP 1A2 [7]; test set): -2.32 kcal/mol
- Residual (ΔGbind^Obs–ΔG bind ^Calc), error in prediction (human CYP 1A2 [4]; test set): 1.34 kcal/mol
- IC50 (recombinant CYP 1A2 [5]): 40000 µM

SMILES: Cc1cc(C)oc(=O)c1 [Compound 72, 4,6-Dimethyl-α-pyron]
- ΔGbind^Obs (recombinant CYP 1A2 [7]; training set): -3.63 kcal/mol
- Residual (ΔGbind^Obs—ΔGbind^Calc) (human CYP 1A2 [4]): 1.05 kcal/mol
- IC50 (recombinant CYP 1A2 [5]): 4500 µM

SMILES: CN1C(=O)CC[C@H]1c1cccnc1 [Compound 73, Cotinine]
- ΔGbind^Obs (recombinant CYP 1A2 [7]; training set): -3.51 kcal/mol
- Residual (ΔGbind^Obs—ΔGbind^Calc) (human CYP 1A2 [4]; training set): 1.84 kcal/mol
- IC50 (recombinant CYP 1A2 [5]; [9]): 5400 µM
